Test results published in ChEMBL document CHEMBL3875224, “Synthesis, docking, cytotoxicity, and LTA4H inhibitory activity of new gingerol derivatives as potential colorectal cancer therapy” (Bioorg Med Chem, 2017).

Experiments:
[1] = Cytotoxicity against human TIG1 cells assessed as reduction in cell viability after 48 hrs by WST1 assay; assay type: toxicity, cell-based
[2] = target: T1, Leukotriene A-4 hydrolase (Homo sapiens, UniProt P09960); experiment: Inhibition of recombinant C-terminal His-tagged human LTA4H epoxide hydrolase activity expressed in Escherichia coli assessed as reduction in LTB4 production using LTA4 as substrate preincubated for 20 mins followed by substrate addition measured after 30 mins by enzyme immunoassay
T1 sequence (P09960 whole entry): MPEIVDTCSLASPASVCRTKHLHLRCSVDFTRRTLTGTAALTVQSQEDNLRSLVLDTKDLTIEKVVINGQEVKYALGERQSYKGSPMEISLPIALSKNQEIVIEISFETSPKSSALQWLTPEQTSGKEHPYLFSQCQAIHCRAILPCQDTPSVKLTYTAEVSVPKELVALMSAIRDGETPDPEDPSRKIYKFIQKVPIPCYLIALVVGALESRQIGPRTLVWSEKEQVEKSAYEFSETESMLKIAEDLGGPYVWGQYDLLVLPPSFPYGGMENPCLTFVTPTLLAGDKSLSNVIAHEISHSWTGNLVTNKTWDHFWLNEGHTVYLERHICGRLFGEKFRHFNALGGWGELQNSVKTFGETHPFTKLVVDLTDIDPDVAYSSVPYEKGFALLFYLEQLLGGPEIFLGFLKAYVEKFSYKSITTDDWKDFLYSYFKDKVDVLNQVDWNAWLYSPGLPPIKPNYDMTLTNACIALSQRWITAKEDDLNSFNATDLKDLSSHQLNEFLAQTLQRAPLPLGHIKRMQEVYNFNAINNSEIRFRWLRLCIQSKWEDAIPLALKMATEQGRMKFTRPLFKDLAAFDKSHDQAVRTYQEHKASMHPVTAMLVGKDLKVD

[3] = Cytotoxicity against human HF19 cells assessed as reduction in cell viability after 48 hrs by WST1 assay; assay type: toxicity, cell-based
[4] = Cytotoxicity against human HCT116 cells assessed as reduction in cell viability after 48 hrs by WST1 assay; assay type: functional, cell-based; conditions: HCT-116, 48 h
[5] = tested on: HCT-116; experiment: Selectivity index, ratio of IC50 for human TIG1 cells to IC50 for human HCT116 cells; assay type: functional
[6] = target: T1, Leukotriene A-4 hydrolase; experiment: Inhibition of recombinant C-terminal His-tagged human LTA4H aminopeptidase activity expressed in Escherichia coli using L-alanine-4-nitro-anilide hydrochloride as substrate preincubated for 20 mins followed by substrate addition

SMILES | IC50 [2] | IC50 [6] | IC50 at 48 h [1] | IC50 at 48 h [3] | IC50 [4] | Ratio IC50 [5]
CCCCCC(CC(=O)CCc1ccc(O)c(OC)c1)OC (configuration not stated) | > 100 µM | > 100 µM | > 100 µM | > 100 µM | > 100 µM | 
CCCC(O)CC(=O)CCc1ccc(O)c(OC)c1 (configuration not stated) | > 100 µM | > 100 µM | > 100 µM | > 100 µM | > 100 µM | 
CCCCCCCC(O)CC(=O)CCc1ccc(O)c(OC)c1 (configuration not stated) | > 100 µM | > 100 µM | 55.6 µM | 77.6 µM | > 100 µM | 0.55
CCCCC/C=C/CCC(O)CC(=O)CCc1ccc(O)c(OC)c1 (configuration not stated) | 67.1 µM | 45.6 µM | > 100 µM | 97.5 µM | 46 µM | 2.17
CCCCCC(O)CC(=O)CCc1cc(OC)c(O)c(-c2cc(CCC(=O)CC(O)CCCCC)cc(OC)c2O)c1 (configuration not stated) | 77.8 µM | > 100 µM | 63.1 µM | 54.8 µM | > 100 µM | 0.63
COc1ccc(CCC(C)=O)cc1OC | > 100 µM | > 100 µM | > 100 µM | > 100 µM | > 100 µM | 
CC(C)=CCCC(C)[C@H]1CC=C(C)C(O)[C@H]1O (some centres not stated) | > 100 µM | > 100 µM | > 100 µM | > 100 µM | > 100 µM | 1
CCCCCC(O)CC(=O)CCc1ccc(OC)c(OC)c1 (configuration not stated) | > 100 µM | > 100 µM | 92.8 µM | 88.4 µM | 76.5 µM | 1.21
CCCCCC(CC(=O)CCc1ccc(OC)c(OC)c1)OC (configuration not stated) | > 100 µM | > 100 µM | > 100 µM | > 100 µM | > 100 µM | 
CC(C)C[C@H](NC(=O)[C@@H](O)[C@H](N)Cc1ccccc1)C(=O)O [UBENIMEX] |  |  | 77.8 µM | 89.5 µM | 42.5 µM | 

The next lines start with results.

IC50 [2] | IC50 [6] | SMILES | IC50 at 48 h [1] | IC50 at 48 h [3] | IC50 [4] | Ratio IC50 [5]
58.3 µM | 56.1 µM | CCCCCC(O)CC(=O)CCc1ccc(O)c(OC)c1 (configuration not stated) | 75.2 µM | > 100 µM | 45.1 µM | 1.67
15.2 µM | 21.6 µM | CCCCCCCCCC(O)CC(=O)CCc1ccc(O)c(OC)c1 (configuration not stated) | > 100 µM | > 100 µM | 33.4 µM | 3
12.4 µM | 7.61 µM | Nc1nc(-c2ccc(Cc3ccccc3)cc2)cs1 | 84.3 µM | > 100 µM | 30.5 µM | 2.76
11.3 µM | 4.92 µM | CCCCC/C=C/C(=O)CCc1ccc(OC)c(OC)c1 | 80.6 µM | > 100 µM | 1.54 µM | 52.3
7.25 µM | 3.01 µM | CCCCCC(O)CC(=O)CCc1ccc(OCC=C(C)C)c(OC)c1 (configuration not stated) | 83.2 µM | > 100 µM | 21.5 µM | 3.87
29.5 µM | 9.31 µM | CCCCC/C=C/C(=O)CCc1ccc(OC(C)=O)c(OC)c1 | > 100 µM | > 100 µM | 26.9 µM | 3.72
27.6 µM | 22.1 µM | CCCCCC(CC(=O)CCc1ccc(OC(C)=O)c(OC)c1)OC(C)=O (configuration not stated) | > 100 µM | > 100 µM | 30.9 µM | 3.23
66.4 µM | 56.3 µM | C=CCOc1ccc(CCC(=O)CC(O)CCCCC)cc1OC (configuration not stated) | 64.6 µM | > 100 µM | > 100 µM | 0.65
24.6 µM | 12.5 µM | CCCCC/C=C/C(=O)CCc1ccc(O)c(OC)c1 [SHOGAOL] | > 100 µM | > 100 µM | 12.9 µM | 7.77
